Measurements as given in patent publication US5190741A, “Agents for diagnosing and treating melanomas, aromatic halogenated derivatives usable as such agents and their preparation” (Institut National de la Sante et de la Recherche Medicale …, priority 1989, dated 1993).
Like-named read-outs stand apart in the source and are kept apart here.

Columns and labels:
[1] = Tissue distribution in C57 BL6 mice bearing B16; format: in vivo, mouse; conditions: mouse, iv, 3 umol/animal
Experimental: (§1) The study of the tissue distribution of the ^125 I labelled compounds was performed in mice bearing grafted melanomas (cf. autoradiograms above). […] The animals are sacrificed at different time intervals of 1 to 24 hours after the injection. The blood is collected and the principal organs are excised. Aliquots are weighed and the radioactivity of the samples is measured in a […] 1191 counter (analytic tracer). The counting yield for iodine 125 is 60%. The results are expressed: as a percentage of the injected dose bound per g of tissue (% ID/g); in the form of the ratios [formula] This ratio reflects more precisely the selectivity of a molecule for an organ (tables 2, 4, 6, 8, 10 and 12).

B16 murine melanoma = experiment: Tissue distribution in C57 BL6 mice bearing B16; format: in vivo, mouse; conditions: mouse, in vivo
Experimental: as §1

[2] = tested on: Beu melanic human melanoma; experiment: Scintillation imaging, nu/nu SSCUP nude mice bearing Beu; format: in vivo; conditions: ^123 I label
Text: (§2) The mice bearing grafted tumors are anesthetized by the i.p. injection of sodium pentobarbital 1/5 and immobilized under a scintillation camera (Gammatome II, CGR) equipped with a pinhole 3-360 collimator, sensitivity 3.2 10^-4.
nu/nu SSCUP nudes bearing human melanomas Beu and Dau.
The scanning observations have also been carried out after the injection of B into the following mice:
nu/nu SSCUP nudes bearing the Beu heterotransplant.

[3] = tested on: A 431 (tumor of the vulva); experiment: Scintillation imaging (specificity), nu/nu SSCUP nude mice; format: in vivo; conditions: after injection of A
Text: as §2

[4] = tested on: SW 948 (adenocarcinoma of the colon); experiment: as above; format: in vivo; conditions: after injection of A
Text: as §2

[5] = tested on: human and murine melanomas; experiment: Scintillation imaging in human and murine melanoma models (B16, B16 pulmonary metastases, Beu, Dau, FOSS(ORIS)); format: in vivo, human; mouse
Text: The mice bearing grafted tumors are anesthetized by the i.p. injection of sodium pentobarbital 1/5 and immobilized under a scintillation camera (Gammatome II, CGR) equipped with a pinhole 3-360 collimator, sensitivity 3.2 10^-4. […] C57 BL6 bearing pulmonary metastases of B16 melanoma.

[6] = muscle, read-out: muscle % ID/g
[7] = pancreas, read-out: pancreas % ID/g
[8] = plasma, read-out: plasma % ID/g
[9] = spleen, read-out: spleen % ID/g
[10] = stomach, read-out: stomach % ID/g
[11] = submaxillary glands, read-out: submaxillary glands % ID/g

CCN(CC)CCNC(=O)c1ccc(I)cc1 [Derivative A, N-(2-diethylaminoethyl) 4-iodo benzamide]
tissue uptake at 6 h [1, 6]: 0.19 %ID/g | tissue uptake at 24 h [1, 6]: 0.009 %ID/g | tissue uptake at 8 h ([1]; muscle, 8 h, read-out: muscle % ID/g): 0.14 %ID/g | tissue uptake at 12 h [1, 6]: 0.03 %ID/g | tissue uptake at 1 h [1, 7]: 5.34 %ID/g | tissue uptake at 2 h [1, 7]: 3.42 %ID/g | tissue uptake at 4 h [1, 7]: 2.01 %ID/g | tissue uptake at 6 h [1, 7]: 0.55 %ID/g | tissue uptake at 8 h ([1]; pancreas, 8 h, read-out: pancreas % ID/g): 0.41 %ID/g | tissue uptake at 12 h [1, 7]: 0.13 %ID/g | tissue uptake at 24 h [1, 7]: 0.04 %ID/g | tissue uptake at 1 h [1, 8]: 0.82 %ID/g | tissue uptake at 2 h [1, 8]: 0.55 %ID/g | tissue uptake at 4 h [1, 8]: 0.45 %ID/g | tissue uptake at 6 h [1, 8]: 0.21 %ID/g | tissue uptake at 24 h [1, 8]: 0.024 %ID/g | tissue uptake at 8 h ([1]; plasma, 8 h, read-out: plasma % ID/g): 0.38 %ID/g | tissue uptake at 12 h [1, 8]: 0.11 %ID/g | tissue uptake at 1 h [1, 9]: 5.91 %ID/g | tissue uptake at 2 h [1, 9]: 2.94 %ID/g | tissue uptake at 4 h [1, 9]: 1.36 %ID/g | tissue uptake at 6 h [1, 9]: 0.56 %ID/g | tissue uptake at 8 h ([1]; spleen, 8 h, read-out: spleen % ID/g): 0.46 %ID/g | tissue uptake at 12 h [1, 9]: 0.16 %ID/g | tissue uptake at 24 h [1, 9]: 0.02 %ID/g | tissue uptake at 1 h [1, 10]: 6.03 %ID/g | tissue uptake at 2 h [1, 10]: 3.87 %ID/g | tissue uptake at 4 h [1, 10]: 2.35 %ID/g | tissue uptake at 6 h [1, 10]: 1.14 %ID/g | tissue uptake at 8 h ([1]; stomach, 8 h, read-out: stomach % ID/g): 1.65 %ID/g | tissue uptake at 12 h [1, 10]: 0.19 %ID/g | tissue uptake at 24 h [1, 10]: 0.07 %ID/g | tissue uptake at 1 h [1, 11]: 6.06 %ID/g | tissue uptake at 2 h [1, 11]: 3.6 %ID/g | tissue uptake at 4 h [1, 11]: 3.68 %ID/g | tissue uptake at 6 h [1, 11]: 1.12 %ID/g | tissue uptake at 8 h ([1]; submaxillary glands, 8 h, read-out: submaxillary glands % ID/g): 0.98 %ID/g | tissue uptake at 12 h [1, 11]: 0.44 %ID/g | tissue uptake at 24 h [1, 11]: 0.09 %ID/g | tissue uptake at 1 h ([1]; tumor, read-out: tumor % ID/g): 6.75 %ID/g | tissue uptake at 2 h ([1]; tumor, read-out: tumor % ID/g): 6.04 %ID/g | tissue uptake at 4 h ([1]; tumor, read-out: tumor % ID/g): 4.82 %ID/g | tissue uptake at 6 h ([1]; tumor, read-out: tumor % ID/g): 3.53 %ID/g | tissue uptake at 24 h ([1]; tumor, read-out: tumor % ID/g): 0.79 %ID/g | tissue uptake at 8 h ([1]; tumor, up to 8 hours, B16, read-out: intratumoral concentration): > 1 %ID/g | tissue uptake at 8 h ([1]; tumor, 8 h, read-out: tumor % ID/g): 3.42 %ID/g | tissue uptake at 12 h ([1]; tumor, read-out: tumor % ID/g): 1.01 %ID/g | marker of the B16 murine melanoma (B16 murine melanoma): markers of the B16 murine melanoma | images compared with ^125 I-A [2]: identical images | tumor image [3]: not obtained any image | tumor image [4]: not obtained any image | tumoral definition in scintillation images ([5]; ^125 I and ^123 I-A, i.v.): good tumoral definition | early images ([5]; considerable intraabdominal and pulmonary radioactivity): more difficult to interpret | quality of tumor images ([5]; from 4 h): good quality | intratumoral necrosis zones ([5]; in vivo): not visualized | size of human melanoma imaged ([5]; in vivo): less than 5 mm
